# Source: ChEMBL document CHEMBL1201862, “PubChem BioAssay data set” (2004)
# The source made the active and inactive calls.
# Experiments:
# BJ [1] = assay: cytotoxicity toward BJ-TERT fibroblasts, dose response, cell-based, RAS-independent, luminescence (AID 1933); assay type: functional; settings: Homo sapiens
# BJ [2] = assay: cells; assay type: functional, cell-based; settings: Homo sapiens
# J774.A1 = assay: Confirmation of image-based Screening Assay for Inhibitors of Phagocytosis. [Related pubchem assays (depositor defined):AID1029, AID1643]; assay type: functional, cell-based; settings: Mus musculus
# BJ [3] = assay: cytotoxicity toward BJ-TERT-LT-ST fibroblasts, dose response, cell-based, RAS-independent, luminescence (AID 1935); assay type: functional; settings: Homo sapiens;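 note: BJ fibroblasts immortalized with TERT plus LT and ST oncogenes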
# [4] = cytotoxicity toward DRD oncogenic fibroblasts, dose response, cell-based, non-viral oncogenic, luminescence (AID 1934); assay type: functional; settings: Homo sapiens
# [5] = cytotoxicity in HEK-293T cells, dose response, cytotoxicity control for TCR NF-kB inhibitor project, luminescence, T-cell screen hits (AID 489026); assay type: functional, cell-based;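 note: cells exposed to compound about 14 hours before the viability readout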
# [6] = NIH-3T3 fibroblast cytotoxicity, dose response, cytotoxicity control, cell-based, fluorescence, Alamar Blue, secondary assay (AID 2327); assay type: functional;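 note: NIH-3T3 mouse fibroblasts cultured with fluconazole at 8 µg/mL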
# [7] = C. albicans growth with fluconazole, confirmation, fluorescence, retest (AID 2467); assay type: functional, cell-based
# [8] = target: T1, Serine/threonine-protein phosphatase (Candida dubliniensis (strain CD36 / CBS 7987 / NCPF 3949 / NRRLY-17841) (Yeast), UniProt B9W6M3); assay: calcineurin pathway inhibitors in yeast reporter, dose response, S. cerevisiae, CDRE-lacZ, luminescence, secondary (AID 2388); assay type: functional, cell-based;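 note: yeast reporter cells carrying a calcineurin-responsive lacZ construct stimulated with calcium chloride; luminescent beta-galactosidase reporter signal in whole cells rather than isolated phosphatase activity; potency for inhibition where a drop in reporter signal means calcineurin blockade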
# T1 sequence (B9W6M3 whole entry): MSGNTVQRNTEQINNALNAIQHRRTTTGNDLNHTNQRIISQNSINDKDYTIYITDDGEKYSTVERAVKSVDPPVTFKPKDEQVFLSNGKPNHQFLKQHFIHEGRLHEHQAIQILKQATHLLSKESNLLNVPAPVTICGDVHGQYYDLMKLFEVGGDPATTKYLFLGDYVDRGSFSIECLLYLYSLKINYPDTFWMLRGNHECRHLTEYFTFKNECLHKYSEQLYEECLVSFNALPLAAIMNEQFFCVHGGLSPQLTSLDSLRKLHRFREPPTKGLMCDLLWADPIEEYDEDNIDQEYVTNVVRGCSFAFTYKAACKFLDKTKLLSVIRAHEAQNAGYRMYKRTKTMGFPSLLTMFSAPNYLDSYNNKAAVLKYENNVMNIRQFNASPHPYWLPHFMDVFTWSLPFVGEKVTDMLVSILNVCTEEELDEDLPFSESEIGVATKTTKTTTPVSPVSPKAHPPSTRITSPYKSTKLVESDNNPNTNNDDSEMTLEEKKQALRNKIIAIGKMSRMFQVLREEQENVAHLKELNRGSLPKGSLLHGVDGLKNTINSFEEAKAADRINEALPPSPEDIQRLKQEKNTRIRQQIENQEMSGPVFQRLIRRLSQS
# [9] = target: NACHT, LRR and PYD domains-containing protein 3 (Homo sapiens, UniProt Q96P20); assay: NALP3 inhibitors in yeast, dose response, luminescent (AID 488799); assay type: functional
# [10] = THP-1 cell cytotoxicity, dose response, cytotoxicity control for non-replicating M. tuberculosis project (AID 489025); assay type: functional
# [11] = HepG2 cell cytotoxicity, dose response, cytotoxicity control for non-replicating M. tuberculosis project (AID 489018); assay type: functional; settings: Mycobacterium tuberculosis
# [12] = Vero E6 cell cytotoxicity, dose response, cytotoxicity control for non-replicating M. tuberculosis project, secondary assay (AID 492998); assay type: functional, VeroE6; settings: Vero C1008
# cells = assay type: functional
# [13] = target: ATP-dependent molecular chaperone HSP82 (Candida albicans (strain WO-1) (Yeast), UniProt C4YTQ8); assay: loss of DOC-induced GRE-beta-galactosidase reporter signal, dose response, Hsp90 inhibitor project, S. cerevisiae, luminescence (AID 2400); assay type: functional, cell-based;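 note: beta-galactosidase luminescence from glucocorticoid response element reporter as proxy for Hsp90 function; inhibitor potency where signal loss means Hsp90 inhibition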
# [14] = target: Potassium voltage-gated channel subfamily KQT member 2 (Rattus norvegicus, UniProt O88943); assay: retigabine-insensitive KCNQ2 potentiators, concentration-response, dose response, cell-based, retigabine-insensitive compounds (AID 2654); assay type: functional
# [15] = target: T2, Polyadenylate-binding protein 1 (Homo sapiens, UniProt P11940); assay: PABP1 MLLE–PAM2 interaction inhibitors, dose response, miRNA deadenylation inhibitor project, biochemical, fluorescence polarization, Cy5-PAM2 peptide, secondary (AID 602260); assay type: functional; settings: read-out: IC50_Mean
# [16] = target: T2, Polyadenylate-binding protein 1; assay: PABP1 MLLE–PAM2 binding inhibitor potency, dose response, biochemical, fluorescence polarization, FITC-PAM2 peptide (AID 602259); assay type: functional; settings: read-out: IC50_Mean
# Salmon testes DNA = assay: DNA intercalators displacing acridine orange, dose response, artefact control for KSHV LANA DNA-binding inhibitor project, biochemical, fluorescence polarization, cherry-picked samples, set 2 (AID 504727); set-up: species or system Salmonidae
# ORF 73 = target: T3, ORF 73 (Human herpesvirus 8, UniProt O40947); assay: inhibitors of C-LANA binding to LBS DNA, dose response, biochemical, fluorescence polarization, cherry-picked samples (AID 504725); set-up: species or system Human gammaherpesvirus 8;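 note: fluorescence polarization of a labeled DNA duplex reporting LANA DNA binding; potency is for inhibitors that block LANA binding to the DNA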
# T3 sequence (O40947 whole entry): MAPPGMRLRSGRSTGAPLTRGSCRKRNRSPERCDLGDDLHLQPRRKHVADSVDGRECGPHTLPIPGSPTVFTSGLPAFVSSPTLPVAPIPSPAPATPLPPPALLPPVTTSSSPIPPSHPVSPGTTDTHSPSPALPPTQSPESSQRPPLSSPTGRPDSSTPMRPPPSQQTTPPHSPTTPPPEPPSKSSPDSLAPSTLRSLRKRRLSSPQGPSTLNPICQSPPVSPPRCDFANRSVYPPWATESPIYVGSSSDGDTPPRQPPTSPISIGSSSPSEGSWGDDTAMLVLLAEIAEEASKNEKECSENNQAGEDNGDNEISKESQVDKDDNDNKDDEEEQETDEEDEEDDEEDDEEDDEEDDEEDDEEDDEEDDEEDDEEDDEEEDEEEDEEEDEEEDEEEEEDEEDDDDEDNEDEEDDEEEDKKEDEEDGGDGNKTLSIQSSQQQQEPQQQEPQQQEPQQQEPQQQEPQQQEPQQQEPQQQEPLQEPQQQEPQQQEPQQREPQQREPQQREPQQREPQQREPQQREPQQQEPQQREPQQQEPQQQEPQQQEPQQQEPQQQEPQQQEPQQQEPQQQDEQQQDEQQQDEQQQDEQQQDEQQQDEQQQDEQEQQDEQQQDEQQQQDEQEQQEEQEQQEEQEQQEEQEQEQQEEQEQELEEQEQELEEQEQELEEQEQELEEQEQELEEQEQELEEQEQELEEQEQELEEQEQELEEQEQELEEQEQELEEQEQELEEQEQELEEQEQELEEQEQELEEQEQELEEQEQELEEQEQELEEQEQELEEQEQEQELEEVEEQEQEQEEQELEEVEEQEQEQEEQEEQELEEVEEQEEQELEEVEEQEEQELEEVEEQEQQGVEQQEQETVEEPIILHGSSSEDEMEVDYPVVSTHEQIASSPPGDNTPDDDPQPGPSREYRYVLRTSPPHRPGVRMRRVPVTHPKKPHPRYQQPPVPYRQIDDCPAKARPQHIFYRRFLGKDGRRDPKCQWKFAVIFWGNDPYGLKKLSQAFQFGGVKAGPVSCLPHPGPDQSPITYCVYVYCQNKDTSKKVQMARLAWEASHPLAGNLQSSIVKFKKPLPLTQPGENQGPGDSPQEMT
# [17] = target: Phosphoethanolamine/phosphocholine phosphatase (Homo sapiens, UniProt Q8TCT1); assay: SAR assay for compounds that inhibit PHOSPHO1. [Related pubchem assays (depositor defined):AID1545, AID1565, AID1574]
# Cytochrome P450 2D6 = Cytochrome P450 2D6 (Homo sapiens, UniProt P10635);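 note: CYP2D6 member of a cytochrome P450 panel assay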
# Protein Rev = Protein Rev (Human immunodeficiency virus type 1 group M subtype B (isolate HXB2)(HIV-1), UniProt P04618); assay: inhibitors of Rev binding to RRE RNA, dose response, biochemical, fluorescence polarization, HIV-1 (AID 434976); set-up: species or system Human immunodeficiency virus 1
# [18] = target: Female germline-specific tumor suppressor gld-1 (Caenorhabditis elegans, UniProt Q17339); assay: inhibitors of GLD-1 binding to TGE RNA, dose response, biochemical, fluorescence polarization, C. elegans (AID 2802);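 note: fluorescence polarization of labeled TGE RNA bound by purified gld-1 protein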
# [19] = target: T4, RNA-binding protein pos-1 (Caenorhabditis elegans, UniProt G5EF15); assay: inhibitors of POS-1/mex-3 RNA binding, dose response, biochemical, fluorescence polarization (AID 1964);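 note: purified POS-1 fused to maltose binding protein made in E. coli; potency of compounds blocking POS-1 binding to fluorescent RNA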
# T4 sequence (G5EF15 whole entry): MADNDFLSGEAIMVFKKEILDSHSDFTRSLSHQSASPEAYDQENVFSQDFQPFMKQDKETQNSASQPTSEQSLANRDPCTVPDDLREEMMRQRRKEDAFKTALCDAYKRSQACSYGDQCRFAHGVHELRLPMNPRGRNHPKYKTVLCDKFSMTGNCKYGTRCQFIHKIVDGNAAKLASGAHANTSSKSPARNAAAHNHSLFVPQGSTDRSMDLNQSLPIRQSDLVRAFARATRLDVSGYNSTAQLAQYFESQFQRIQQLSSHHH
# [20] = target: T5, Zinc finger protein mex-5 (Caenorhabditis elegans, UniProt Q9XUB2); assay: MEX-5/TCR-2 RNA interaction inhibitors, dose response, biochemical, C. elegans, fluorescence polarization (AID 1960)
# T5 sequence (Q9XUB2 whole entry): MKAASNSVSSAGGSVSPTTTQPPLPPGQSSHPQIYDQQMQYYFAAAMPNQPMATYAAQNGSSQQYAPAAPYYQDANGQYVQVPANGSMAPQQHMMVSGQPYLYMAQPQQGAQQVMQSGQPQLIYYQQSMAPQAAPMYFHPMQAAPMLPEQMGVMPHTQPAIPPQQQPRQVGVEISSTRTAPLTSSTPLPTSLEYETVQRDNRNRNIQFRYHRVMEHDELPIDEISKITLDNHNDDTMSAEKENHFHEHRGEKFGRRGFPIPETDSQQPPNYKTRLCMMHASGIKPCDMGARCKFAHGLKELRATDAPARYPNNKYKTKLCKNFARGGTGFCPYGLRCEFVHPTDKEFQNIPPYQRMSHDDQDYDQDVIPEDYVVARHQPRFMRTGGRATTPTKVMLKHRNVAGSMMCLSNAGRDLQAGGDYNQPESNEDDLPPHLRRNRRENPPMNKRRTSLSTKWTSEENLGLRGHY
# T2 sequence (P11940 whole entry): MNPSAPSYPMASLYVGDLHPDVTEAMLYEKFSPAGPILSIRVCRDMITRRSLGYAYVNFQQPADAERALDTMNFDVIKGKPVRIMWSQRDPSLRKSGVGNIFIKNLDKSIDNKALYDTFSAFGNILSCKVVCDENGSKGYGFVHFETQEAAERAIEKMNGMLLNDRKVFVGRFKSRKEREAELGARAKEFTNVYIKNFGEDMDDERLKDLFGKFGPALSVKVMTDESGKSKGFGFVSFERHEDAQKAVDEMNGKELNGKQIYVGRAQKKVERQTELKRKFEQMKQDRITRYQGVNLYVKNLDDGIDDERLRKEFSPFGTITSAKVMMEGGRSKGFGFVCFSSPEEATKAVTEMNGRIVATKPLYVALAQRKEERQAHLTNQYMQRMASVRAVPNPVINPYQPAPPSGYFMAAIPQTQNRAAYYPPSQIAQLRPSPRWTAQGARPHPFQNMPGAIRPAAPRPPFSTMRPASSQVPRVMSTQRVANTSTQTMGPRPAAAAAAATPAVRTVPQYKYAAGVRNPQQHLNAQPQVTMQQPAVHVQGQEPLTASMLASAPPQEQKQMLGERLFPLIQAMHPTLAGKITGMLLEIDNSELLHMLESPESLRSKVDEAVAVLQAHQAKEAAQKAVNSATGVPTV
# Sequence of Cytochrome P450 2D6 (P10635 whole entry): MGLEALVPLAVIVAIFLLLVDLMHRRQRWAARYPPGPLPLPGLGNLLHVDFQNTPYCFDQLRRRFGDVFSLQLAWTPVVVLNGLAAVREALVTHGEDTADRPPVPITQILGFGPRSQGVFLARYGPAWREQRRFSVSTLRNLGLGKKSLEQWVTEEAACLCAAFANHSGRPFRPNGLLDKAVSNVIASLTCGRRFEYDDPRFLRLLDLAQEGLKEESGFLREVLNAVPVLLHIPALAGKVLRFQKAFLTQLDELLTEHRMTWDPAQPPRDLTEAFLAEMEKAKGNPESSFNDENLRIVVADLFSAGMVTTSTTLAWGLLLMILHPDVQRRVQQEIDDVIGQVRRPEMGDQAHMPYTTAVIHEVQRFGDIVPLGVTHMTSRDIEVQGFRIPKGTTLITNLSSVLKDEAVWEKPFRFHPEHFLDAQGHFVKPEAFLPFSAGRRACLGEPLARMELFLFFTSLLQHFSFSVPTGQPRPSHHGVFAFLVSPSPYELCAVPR
# Sequence of ATP-dependent molecular chaperone HSP82 (C4YTQ8 whole entry): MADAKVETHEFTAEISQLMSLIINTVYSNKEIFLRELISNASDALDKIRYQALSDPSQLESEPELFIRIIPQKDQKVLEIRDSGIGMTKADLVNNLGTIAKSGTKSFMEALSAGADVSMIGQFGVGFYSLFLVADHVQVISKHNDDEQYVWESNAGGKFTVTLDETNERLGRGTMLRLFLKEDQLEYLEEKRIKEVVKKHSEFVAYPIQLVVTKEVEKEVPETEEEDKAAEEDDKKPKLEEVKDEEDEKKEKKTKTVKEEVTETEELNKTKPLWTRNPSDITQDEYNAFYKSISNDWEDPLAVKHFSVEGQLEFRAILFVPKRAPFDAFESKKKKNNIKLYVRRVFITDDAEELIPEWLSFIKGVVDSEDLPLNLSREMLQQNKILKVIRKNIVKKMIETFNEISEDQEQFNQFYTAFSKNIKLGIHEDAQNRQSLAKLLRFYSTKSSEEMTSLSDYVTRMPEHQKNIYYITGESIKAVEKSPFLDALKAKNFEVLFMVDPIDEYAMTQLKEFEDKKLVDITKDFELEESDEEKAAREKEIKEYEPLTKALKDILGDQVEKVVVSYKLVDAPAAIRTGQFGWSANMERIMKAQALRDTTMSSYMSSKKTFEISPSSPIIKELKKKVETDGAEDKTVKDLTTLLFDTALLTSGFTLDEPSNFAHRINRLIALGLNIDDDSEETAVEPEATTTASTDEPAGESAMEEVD
# Sequence of Potassium voltage-gated channel subfamily KQT member 2 (O88943 whole entry): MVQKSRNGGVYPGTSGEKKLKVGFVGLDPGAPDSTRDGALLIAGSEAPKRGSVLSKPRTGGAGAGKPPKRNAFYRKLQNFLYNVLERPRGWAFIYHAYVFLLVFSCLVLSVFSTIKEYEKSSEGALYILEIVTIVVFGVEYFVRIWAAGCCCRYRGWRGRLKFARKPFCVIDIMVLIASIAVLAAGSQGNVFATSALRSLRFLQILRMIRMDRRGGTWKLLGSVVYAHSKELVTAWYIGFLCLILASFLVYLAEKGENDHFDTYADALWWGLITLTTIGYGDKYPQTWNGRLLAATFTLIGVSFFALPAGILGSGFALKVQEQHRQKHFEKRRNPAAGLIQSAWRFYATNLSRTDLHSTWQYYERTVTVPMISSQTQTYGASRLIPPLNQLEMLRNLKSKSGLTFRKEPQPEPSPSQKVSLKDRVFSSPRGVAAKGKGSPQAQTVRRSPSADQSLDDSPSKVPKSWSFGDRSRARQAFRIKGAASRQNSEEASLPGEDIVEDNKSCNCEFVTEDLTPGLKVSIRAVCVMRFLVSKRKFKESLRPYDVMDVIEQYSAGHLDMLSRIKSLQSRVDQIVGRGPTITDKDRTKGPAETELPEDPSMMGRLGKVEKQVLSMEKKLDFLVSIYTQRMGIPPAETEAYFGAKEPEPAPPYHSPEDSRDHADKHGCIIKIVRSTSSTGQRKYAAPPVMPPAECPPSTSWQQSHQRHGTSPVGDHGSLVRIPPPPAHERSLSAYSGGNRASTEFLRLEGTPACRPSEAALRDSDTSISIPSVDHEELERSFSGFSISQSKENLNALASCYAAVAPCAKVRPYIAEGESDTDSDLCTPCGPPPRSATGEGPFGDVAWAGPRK
# Sequence of NACHT, LRR and PYD domains-containing protein 3 (Q96P20 whole entry, the tested form may be a part): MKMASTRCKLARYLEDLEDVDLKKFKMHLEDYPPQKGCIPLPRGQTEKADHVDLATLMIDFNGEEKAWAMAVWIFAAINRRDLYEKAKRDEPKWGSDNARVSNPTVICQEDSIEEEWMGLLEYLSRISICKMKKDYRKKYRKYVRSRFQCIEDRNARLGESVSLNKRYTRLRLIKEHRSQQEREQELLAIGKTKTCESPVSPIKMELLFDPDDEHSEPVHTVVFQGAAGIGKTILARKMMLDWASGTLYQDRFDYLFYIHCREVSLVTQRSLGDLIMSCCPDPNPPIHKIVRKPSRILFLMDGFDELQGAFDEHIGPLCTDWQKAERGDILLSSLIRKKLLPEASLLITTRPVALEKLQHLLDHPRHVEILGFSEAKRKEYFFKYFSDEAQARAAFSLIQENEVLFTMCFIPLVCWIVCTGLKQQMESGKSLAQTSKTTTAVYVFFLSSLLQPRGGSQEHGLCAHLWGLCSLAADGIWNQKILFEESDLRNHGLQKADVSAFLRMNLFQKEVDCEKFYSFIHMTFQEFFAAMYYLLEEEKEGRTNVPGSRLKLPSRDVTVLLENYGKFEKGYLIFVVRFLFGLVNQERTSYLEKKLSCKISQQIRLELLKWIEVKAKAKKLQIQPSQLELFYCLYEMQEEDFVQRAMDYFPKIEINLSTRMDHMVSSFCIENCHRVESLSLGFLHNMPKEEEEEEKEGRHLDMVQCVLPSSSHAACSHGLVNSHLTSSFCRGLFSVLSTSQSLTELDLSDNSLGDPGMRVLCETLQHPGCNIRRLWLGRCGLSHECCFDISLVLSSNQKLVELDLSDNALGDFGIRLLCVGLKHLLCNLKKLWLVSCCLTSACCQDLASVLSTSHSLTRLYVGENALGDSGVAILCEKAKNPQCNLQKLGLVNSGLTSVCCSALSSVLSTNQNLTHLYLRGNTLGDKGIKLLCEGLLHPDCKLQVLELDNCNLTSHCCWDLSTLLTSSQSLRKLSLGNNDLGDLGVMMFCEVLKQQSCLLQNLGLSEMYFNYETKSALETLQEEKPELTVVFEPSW
# Sequence of Protein Rev (P04618 whole entry): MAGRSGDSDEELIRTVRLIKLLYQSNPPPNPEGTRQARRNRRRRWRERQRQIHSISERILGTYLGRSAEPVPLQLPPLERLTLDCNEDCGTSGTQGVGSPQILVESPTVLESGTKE
# Sequence of Phosphoethanolamine/phosphocholine phosphatase (Q8TCT1 whole entry): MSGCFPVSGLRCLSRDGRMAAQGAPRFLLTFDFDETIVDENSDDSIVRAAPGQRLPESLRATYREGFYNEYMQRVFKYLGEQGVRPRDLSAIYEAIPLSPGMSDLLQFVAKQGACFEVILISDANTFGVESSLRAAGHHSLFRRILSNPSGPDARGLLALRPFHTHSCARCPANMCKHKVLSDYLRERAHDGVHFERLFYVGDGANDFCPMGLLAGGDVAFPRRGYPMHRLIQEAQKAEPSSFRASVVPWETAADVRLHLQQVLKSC
# Sequence of Female germline-specific tumor suppressor gld-1 (Q17339 whole entry, the tested form may be a part): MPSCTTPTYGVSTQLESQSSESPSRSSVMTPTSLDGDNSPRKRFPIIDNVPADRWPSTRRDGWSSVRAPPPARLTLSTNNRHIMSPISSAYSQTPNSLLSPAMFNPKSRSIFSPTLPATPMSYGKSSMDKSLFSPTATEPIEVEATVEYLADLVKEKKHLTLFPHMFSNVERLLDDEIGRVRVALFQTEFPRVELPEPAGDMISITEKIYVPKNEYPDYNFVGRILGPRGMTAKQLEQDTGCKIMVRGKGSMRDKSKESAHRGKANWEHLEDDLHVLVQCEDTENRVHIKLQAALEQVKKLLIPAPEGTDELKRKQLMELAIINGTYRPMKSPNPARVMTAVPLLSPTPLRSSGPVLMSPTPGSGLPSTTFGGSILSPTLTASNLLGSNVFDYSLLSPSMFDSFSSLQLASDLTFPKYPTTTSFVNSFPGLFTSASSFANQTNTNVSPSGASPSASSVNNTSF
compound,measurement,setting,value
CCOc1ccccc1C1CC(=O)Nc2cc3c(cc21)OCCO3 (stereo unspecified),EC50,BJ [1],1.23 µM (active)
same,EC50,BJ [2],22.3 µM (active)
same,IC50,J774.A1,> 25 µM (inactive)
same,EC50,BJ [3],0.814 µM (inconclusive)
same,EC50,[4],0.829 µM (active)
same,IC50,[5],> 80 µM (inactive)
O=c1c2cc(Br)ccc2nc(-c2ccc([N+](=O)[O-])cc2)n1O,EC50,[6],> 150 µM (inactive)
same,EC50,[7],0.585 µM (active)
same,EC50,[8],3.07 µM (active)
same,IC50,[9],4.91 µM (active)
same,CC50,[10],20.3 µM (active)
same,CC50,[11],19.9 µM (active)
same,CC50,[12],18.4 µM (active)
same,IC50,cells,11.9 µM (active)
same,EC50,[13],2.56 µM (active)
Fc1cccc(NC(=S)Nc2cccnc2)c1,EC50,[14],41.9 µM (active)
same,IC50,[15],> 66 µM (inactive)
same,IC50,[16],> 66 µM (inactive)
COC(=O)c1cc(N2CCN(C)CC2)nc2ccccc12,AC50,Salmon testes DNA,137 µM (active)
same,AC50,ORF 73,59.9 µM (active)
Cc1c(OCC(F)(F)F)ccnc1C[S+]([O-])c1nc2ccccc2[nH]1 (stereo unspecified) [LANSOPRAZOLE],IC50,[17],0.434 µM (active)
same,AC50,Cytochrome P450 2D6,12.6 µM (inconclusive)
O=C1CS/C(=C\[N+](=O)[O-])N1c1ccccc1,IC50,Protein Rev,3.03 µM (active)
same,IC50,[18],> 59.6 µM (inactive)
same,EC50,[19],> 300 µM (not active)
same,EC50,[20],190 µM (active)
